Experiments:
[1] = test system: PC-3 tumor-bearing mouse model; assay: In vivo tumor inhibitory effect; set-up: species or system mice; details: day 14 after tail vein injection, controls PBS, CDDP, PA-Mn-BSA
Description: A PC-3 tumor-bearing mouse model was constructed. […] Tumor size was measured every other day for 14 consecutive days after injection to observe the tumor growth inhibitory effect in different groups. Tumors were dissected and collected from the mice on day 14 for size observation.

[2] = Safety evaluation, blood biochemical analysis; format: in vivo, Kunming mice; details: 24 hours after tail vein injection, versus PBS group
Description: Normal Kunming mice were selected, and PBS, CDDP, PA-Mn-BSA and PA-Mn/Pt-BSA were separately injected via the tail vein of the mice. Blood biochemical analysis was performed 24 hours later.

[NH2][Pt]([NH2])([Cl])[Cl] [CDDP, cisplatin]
tumor volume of dissected tumors [1]: smaller tumor volume than the PBS group
level of alanine transaminase (ALT) [2]: significantly higher
level of aspartate transaminase (AST) [2]: significantly higher
level of blood urea nitrogen (BUN) [2]: significantly higher
level of creatinine (CRE) [2]: significantly higher

Source: patent publication US20260108641A1, “PHYTIC ACID-BASED TERNARY COMPLEX BIOMIMETIC NANOMATERIAL, AND PREPARATION METHOD AND USE THEREOF” (THE SECOND HOSPITAL OF TIAN JIN MEDICAL UNIVERSITY, priority 2023, published 2026)
